Data on 15 compounds can be found in patent publication US12448394B2, “Heterocyclic pyrazole derivatives as type III receptor tyrosine kinase inhibitors” (DEVELOPMENT CENTER FOR BIOTECHNOLOGY, priority 2019, dated 2025).

pIC50: −log10 of the molar value.

In assay [1] the test system is A375 melanoma cell with BRAF V600E mutation. As to the kind of experiment: A375 cell proliferation assay (counter screen). The conditions noted are these: Homo sapiens, A-375, A375 cells, 72 hours treatment, CellTiter96, read-out: anti-proliferation activity A375 BRAF V600E, IC50 ranking. In kind it is cell-based, human. As to the method:
(§1) Inhibitions of cell growths by compounds were measured using CellTiter™-96 assay. The cytotoxicities of compounds of the invention were evaluated in cell line panels with different signaling pathway dependencies, including MV4-11 human acute myeloid leukemia cell with FLT3-ITD mutation, Molm-14 human acute myeloid leukemia cell with FLT3-ITD mutation, THP-1 human acute monocytic leukemia cell with NRAS G12D mutation, A375 melanoma cell with BRAF V600E mutation, and HCC827 NSCLC cell with EGFR exon 19 deletion mutation.
A375 cells are melanoma cells encoding BRFA V600E mutation, which renders the cell growth dependent on BRAF signaling instead of class III RTKs signaling. A375 cells (catalog #CRL-1619) were obtained from the ATCC. Briefly, cells were cultured in DMEM containing 10% FBS and incubated at 37° C. in 5% CO2 atmosphere. Cells were allowed to expand until reaching saturation, at which point they were sub-cultured or harvested for assay use.
(§2) MV4-11, Molm-14, THP-1, A375, and HCC827 cells were seeded into 96-well plates at 6500, 25000, 5000, 2000 and 8000 cells/well, respectively, and incubated at 37° C., 5% CO2 overnight. Then, these seeded cells were treated with increasing concentrations of the test compounds and incubated for another 72 hours. At the end of the incubation, CellTiter96® AQueous One Solution Reagent (Promega, […]) was added and incubated for the additional 2˜4 hours. Cell viability was determined by measuring absorbance at 490 nm using EMax® microplate reader (Molecular Devices, San Jose, CA, USA).
On the technique in general: A counterscreen serves to expose hits that act by an unwanted route or on another target.

For assay [2], the system named is THP-1 human acute monocytic leukemia cell with NRAS G12D mutation. As to the kind of experiment: THP-1 cell proliferation assay (counter screen). As to conditions: Homo sapiens, THP-1 cells, 72 hours treatment, CellTiter96, read-out: anti-proliferation activity THP-1 NRAS N12D, IC50 ranking. It is filed as cell-based. As to the method:
as §1
THP-1 cells are human acute monocytic leukemia cells with NRAS G12D mutation, which renders the cell growth independent of class III RTKs signaling. THP-1 cells (catalog #TIB-202) were obtained from the ATCC. Briefly, cells were grown in RPMI 1640 medium supplemented with 10% heat inactivated fetal bovine serum and 0.05 mM 2-mercaptoethanol and incubated at 37° C. in 5% CO2 atmosphere. Cells were allowed to expand until reaching saturation, at which point they were sub-cultured or harvested for assay use.
as §2

Assay [3] concerns the target T1, MET kinase (Homo sapiens, UniProt P08581).
T1 construct: purchased SignalChem
Put plainly: MET kinase assay (AlphaScreen, counter screen). It is filed as biochemical. As to conditions: read-out: Ranking of IC50 values, MET. As to the method:
Because MET kinase belonged to Class VIII RTK family have one transmembrane a chain linked with one extracellular β chain which is different form Class III RTK family with 5 Immunoglobin-like extracellular domains. Standard assay conditions were 1 ng of recombinant MET kinase (SignalChem) with 3 ng Biotin-conjugated Poly-(Glu 4: Tyr 1) (Cisbio) in the assay buffer ([…], 10 mM MOPs, pH 7.0, 0.21 mM EDTA, 0.5% glycerol, 1 mg/mL BSA, 0.01% 2-mercaptoethanol, 0.001% Brij35, 10 mM MgCl2) in a final volume of 25 μL. Reactions were incubated at 30° C. for 45 min and stopped by adding 5 μL of 50 mM EDTA. Analysis of resulting product using an AlphaScreen kit and counted with Enspire Alpha (PerkinElmer). […] The IC50 values of inhibitors were determined after carrying out assays with each compound at serially diluted concentrations in duplication. The results were analyzed using linear regression software (GraphPad Prism 5; GraphPad Software Inc.)

For assay [4], the target named is T2, PDGFRα kinase (Homo sapiens, UniProt P16234).
T2 construct: purchased SignalChem
T2 sequence (P16234 24-1089): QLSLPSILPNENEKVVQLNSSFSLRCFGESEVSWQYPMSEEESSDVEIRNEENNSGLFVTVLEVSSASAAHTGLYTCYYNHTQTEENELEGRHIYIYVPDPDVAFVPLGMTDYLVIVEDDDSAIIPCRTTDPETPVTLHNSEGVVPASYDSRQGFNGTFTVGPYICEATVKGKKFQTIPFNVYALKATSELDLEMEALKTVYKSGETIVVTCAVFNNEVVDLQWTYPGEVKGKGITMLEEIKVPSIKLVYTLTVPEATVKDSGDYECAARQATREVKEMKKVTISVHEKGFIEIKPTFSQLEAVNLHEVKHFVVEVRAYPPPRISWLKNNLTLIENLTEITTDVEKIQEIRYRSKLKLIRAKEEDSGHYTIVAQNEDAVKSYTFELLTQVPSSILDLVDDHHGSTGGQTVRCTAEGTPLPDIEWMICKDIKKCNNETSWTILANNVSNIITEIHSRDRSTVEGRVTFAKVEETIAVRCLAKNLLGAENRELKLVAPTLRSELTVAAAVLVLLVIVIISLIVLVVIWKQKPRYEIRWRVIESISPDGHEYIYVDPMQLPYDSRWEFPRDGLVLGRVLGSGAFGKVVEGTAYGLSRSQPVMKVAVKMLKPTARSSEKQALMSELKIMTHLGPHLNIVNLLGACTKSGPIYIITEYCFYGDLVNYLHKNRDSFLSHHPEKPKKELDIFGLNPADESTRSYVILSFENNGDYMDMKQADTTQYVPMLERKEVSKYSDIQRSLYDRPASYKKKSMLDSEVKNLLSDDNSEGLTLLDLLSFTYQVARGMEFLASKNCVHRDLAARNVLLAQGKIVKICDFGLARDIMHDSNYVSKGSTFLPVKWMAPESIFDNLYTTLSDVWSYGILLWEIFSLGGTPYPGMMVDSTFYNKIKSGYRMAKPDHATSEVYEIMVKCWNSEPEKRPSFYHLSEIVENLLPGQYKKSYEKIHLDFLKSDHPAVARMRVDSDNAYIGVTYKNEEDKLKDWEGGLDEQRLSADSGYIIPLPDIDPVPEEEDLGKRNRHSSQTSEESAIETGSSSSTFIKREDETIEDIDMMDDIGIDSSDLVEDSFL
As to the kind of experiment: PDGFRα kinase assay (AlphaScreen). It is filed as biochemical. The conditions noted are these: read-out: Ranking of IC50 values, PDGFRα. The method, then: Inhibition of PDGFRα kinase activity by a test compound disclosed herein was estimated by AlphaScreen (PerkinElmer). Standard assay conditions were 1.5 ng of recombinant PDGFRα kinase (SignalChem) with 6 ng Biotin-conjugated Poly-(Glu 4: Tyr 1) (Cisbio) in the assay buffer (10 μM ATP, 10 mM MOPs, pH 7.0, 0.21 mM EDTA, 0.5% glycerol, 1 mg/mL BSA, 0.01% 2-mercaptoethanol, 0.001% Brij35, 10 mM MgCl2) in a final volume of 25 μL. Reactions were incubated at 30° C. for 30 min and stopped by adding […] of 50 mM EDTA. Analysis of resulting product using an AlphaScreen kit and counted with Enspire Alpha (PerkinElmer). […] The IC50 values of inhibitors were determined after carrying out assays with each compound at serially diluted concentrations in duplication. The results were analyzed using linear regression software (GraphPad Prism 5; GraphPad Software Inc.)
Background: Alpha assays give light when donor and acceptor beads are brought close together.

T1 sequence (P08581 25-1390): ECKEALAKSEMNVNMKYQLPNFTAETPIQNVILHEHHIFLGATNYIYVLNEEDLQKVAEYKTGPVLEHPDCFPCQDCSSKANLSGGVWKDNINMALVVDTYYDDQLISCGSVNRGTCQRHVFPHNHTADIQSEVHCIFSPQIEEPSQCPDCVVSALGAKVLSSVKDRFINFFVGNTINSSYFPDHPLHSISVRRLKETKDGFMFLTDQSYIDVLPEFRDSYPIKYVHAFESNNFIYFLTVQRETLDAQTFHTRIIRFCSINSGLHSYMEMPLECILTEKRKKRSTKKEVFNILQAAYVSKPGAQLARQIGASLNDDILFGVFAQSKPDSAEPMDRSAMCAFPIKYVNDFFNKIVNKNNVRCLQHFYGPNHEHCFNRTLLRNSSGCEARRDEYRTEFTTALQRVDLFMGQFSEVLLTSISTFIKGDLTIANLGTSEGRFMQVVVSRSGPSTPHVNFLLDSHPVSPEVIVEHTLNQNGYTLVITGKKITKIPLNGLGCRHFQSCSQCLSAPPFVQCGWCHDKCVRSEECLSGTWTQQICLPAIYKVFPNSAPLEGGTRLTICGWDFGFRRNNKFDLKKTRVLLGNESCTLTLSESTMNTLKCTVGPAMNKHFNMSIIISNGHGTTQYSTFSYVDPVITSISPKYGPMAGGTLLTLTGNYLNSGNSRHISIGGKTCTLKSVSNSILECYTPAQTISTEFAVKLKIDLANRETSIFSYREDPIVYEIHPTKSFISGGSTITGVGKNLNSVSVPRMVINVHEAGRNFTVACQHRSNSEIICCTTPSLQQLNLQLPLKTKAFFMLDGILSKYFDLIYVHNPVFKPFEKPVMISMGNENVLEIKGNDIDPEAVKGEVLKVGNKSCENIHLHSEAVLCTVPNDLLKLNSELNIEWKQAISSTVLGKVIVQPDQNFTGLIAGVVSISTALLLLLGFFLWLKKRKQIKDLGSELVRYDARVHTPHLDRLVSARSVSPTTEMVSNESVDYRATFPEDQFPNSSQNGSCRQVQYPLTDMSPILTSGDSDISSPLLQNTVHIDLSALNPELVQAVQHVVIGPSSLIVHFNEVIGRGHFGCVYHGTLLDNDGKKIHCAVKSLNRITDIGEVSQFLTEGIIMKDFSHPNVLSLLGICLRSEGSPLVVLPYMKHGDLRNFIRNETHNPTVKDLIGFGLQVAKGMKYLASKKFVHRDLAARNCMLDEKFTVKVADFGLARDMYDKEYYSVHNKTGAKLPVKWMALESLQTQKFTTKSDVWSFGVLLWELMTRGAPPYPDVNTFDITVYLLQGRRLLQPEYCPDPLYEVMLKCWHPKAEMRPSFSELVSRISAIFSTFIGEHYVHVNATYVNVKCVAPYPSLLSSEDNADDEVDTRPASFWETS

As to `C[C@@H]1COCCN1Cc1ccc(-c2cc3c(s2)Cc2c(-c4ccc5cnn(C)c5c4)n[nH]c2-3)cc1` [Compound 74, (R)-3-methyl-4-(4-(3-(1-methyl-1H-indazol-6-yl)-1,4-dihydrothieno [2′,3′:4,5]cyclopenta [1,2-c]pyrazol-6-yl)benzyl)morpholine], the pIC50 in assay [1] is below 5.00; in assay [2], below 5.00; in assay [3], below 6.00; in assay [4] it was 8.00 to 9.00.

For the compound `Cn1ncc2ccc(-c3n[nH]c4c3Cc3sc(-c5ccc(CN6CCC6)cc5)cc3-4)cc21` [Compound 103, 6-(4-(azetidin-1-ylmethyl)phenyl)-3-(1-methyl-1H-indazol-6-yl)-1,4-dihydro-thieno[2′,3′:4,5]cyclopenta [1,2-c]pyrazole], the pIC50 in assay [1] was below 5.00; in assay [2], below 5.00; in assay [3], 6.00 to 6.52; in assay [4], 8.00 to 9.00.

With `Cn1ncc2ccc(-c3n[nH]c4c3Cc3sc(-c5ccc(C(=O)N6CCCCC6)cc5)cc3-4)cc21` [Compound 34, (4-(3-(1-methyl-1H-indazol-6-yl)-1,4-dihydro-thieno[2′,3′:4,5]cyclopenta [1,2-c]pyrazol-6-yl)phenyl)(piperidin-1-yl) methanone], the pIC50 in assay [1] was below 5.00; in assay [2], below 5.00; in assay [3], below 6.00; in assay [4], 7.00 to 7.52.

For the compound `COc1cc(CN2CCOCC2)ccc1-c1cc2c(s1)Cc1c(-c3ccc4cnn(C)c4c3)n[nH]c1-2` [Compound 29, 4-(3-methoxy-4-(3-(1-methyl-1H-indazol-6-yl)-1,4-dihydrothieno [2′,3′:4,5]cyclopenta[1,2-c]pyrazol-6-yl)benzyl) morpholine], the pIC50 in assay [1] is below 5.00; in assay [2] it was below 5.00; in assay [3], below 6.00; in assay [4], 7.52 to 8.00.

As to `CN1CCN(C(=O)c2ccc(-c3cc4c(s3)Cc3c(-c5ccc6cnn(C)c6c5)n[nH]c3-4)cc2)CC1` [Compound 15, (4-(3-(1-methyl-1H-indazol-6-yl)-1,4-dihydrothieno[2′,3′:4,5]cyclopenta[1,2-c]pyrazol-6-yl)phenyl)(4-methyl-piperazin-1-yl)methanone], the pIC50 was below 5.00 in assay [1], below 5.00 in assay [2], below 6.00 in assay [3] and 8.00 to 9.00 in assay [4].

On to `Cc1ccc(-c2cc3c(s2)Cc2c(-c4ccc5cnn(C)c5c4)n[nH]c2-3)cn1` [Compound 11, 3-(1-methyl-1H-indazol-6-yl)-6-(6-methylpyridin-3-yl)-1,4-dihydrothieno [2′,3′:4,5]cyclopenta[1,2-c] pyrazole], for which the pIC50 in assay [1] was below 5.00; in assay [2], below 5.00; in assay [3], below 6.00; in assay [4] it was 7.52 to 8.00.

Take `Cn1ncc2ccc(-c3n[nH]c4c3Cc3sc(-c5ccc(CN6CCCCC6)cc5)cc3-4)cc21` [Compound 100, 3-(1-methyl-1H-indazol-6-yl)-6-(4-(piperidin-1-ylmethyl)phenyl)-1,4-dihydrothieno[2′,3′:4,5] cyclopenta[1,2-c]pyrazole]: the pIC50 was below 5.00 in assay [1], 5.00 to 6.00 in assay [2], 6.52 to 7.00 in assay [3] and 8.00 to 9.00 in assay [4].

Regarding `CC(C)n1ncc2ccc(-c3n[nH]c4c3Cc3sc(-c5ccc(CN6CCOCC6)cc5)cc3-4)cc21` [Compound 42, 4-(4-(3-(1-isopropyl-1H-indazol-6-yl)-1,4-dihydro-thieno[2′,3′:4,5]cyclopenta [1,2-c]pyrazol-6-yl)benzyl)morpholine], the pIC50 was below 5.00 in assay [1], below 5.00 in assay [2], below 6.00 in assay [3] and 7.52 to 8.00 in assay [4].

As for `Cn1ncc2ccc(-c3n[nH]c4c3Cc3sc(-c5ccc(CN6CCCCC6=O)cc5)cc3-4)cc21` [Compound 61, 1-(4-(3-(l-methyl-1H-indazol-6-yl)-1,4-dihydro-thieno[2′,3′:4,5]cyclopenta [1,2-c]pyrazol-6-yl)benzyl)piperidin-2-one], the pIC50 in assay [1] is below 5.00; in assay [2], below 5.00; in assay [3] it was below 6.00; in assay [4], 8.00 to 9.00.

As for `CC(c1ccc(-c2cc3c(s2)Cc2c(-c4ccc5cnn(C)c5c4)n[nH]c2-3)cc1)N1CCOCC1` (stereo not drawn) [Compound 20, 4-(1-(4-(3-(1-methyl-1H-indazol-6-yl)-1,4-dihydro-thieno[2′,3′:4,5]cyclopenta [1,2-c]pyrazol-6-yl)phenyl)ethyl)morpholine], the pIC50 is below 5.00 in assay [1], below 5.00 in assay [2], below 6.00 in assay [3] and 8.00 to 9.00 in assay [4].

On to `Cn1ncc2ccc(-c3n[nH]c4c3Cc3sc(-c5ccc(NC6CCOCC6)cc5)cc3-4)cc21` [Compound 72, N-(4-(3-(1-methyl-1H-indazol-6-yl)-1,4-dihydro-thieno[2′,3′:4,5]cyclopenta [1,2-c]pyrazol-6-yl)phenyl)tetrahydro-2H-pyran-4-amine], for which the pIC50 was below 5.00 in assay [1], below 5.00 in assay [2], below 6.00 in assay [3] and 7.52 to 8.00 in assay [4].

Regarding `Cn1ncc2ccc(-c3n[nH]c4c3Cc3sc(C5CCN(C(=O)CN6CCOCC6)CC5)cc3-4)cc21` [Compound 98, 1-(4-(3-(1-methyl-1H-indazol-6-yl)-1,4-dihydro-thieno[2′,3′:4,5]cyclopenta [1,2-c]pyrazol-6-yl)piperidin-1-yl)-2-morpholinoethan-1-one], the pIC50 in assay [1] is 5.00 to 6.00; in assay [2] it was 6.00 to 6.52; in assay [3], below 6.00; in assay [4], 8.00 to 9.00.

For `Cn1ncc2ccc(-c3n[nH]c4c3Cc3sc(-c5ccc(CN6CCOCC6)cc5F)cc3-4)cc21` [Compound 32, 4-(3-fluoro-4-(3-(1-methyl-1H-indazol-6-yl)-1,4-dihydrothieno [2′,3′:4,5]cyclopenta [1,2-c]pyrazol-6-yl)benzyl)morpholine], the pIC50 was below 5.00 in assay [1], below 5.00 in assay [2], below 6.00 in assay [3] and 7.52 to 8.00 in assay [4].

As to `C[C@@H]1CN(Cc2cccc(-c3cc4c(s3)Cc3c(-c5ccc6cnn(C)c6c5)n[nH]c3-4)c2)C[C@H](C)O1` [Compound 12, (2S,6R)-2,6-dimethyl-4-(3-(3-(1-methyl-1H-indazol-6-yl)-1,4-dihydrothieno [2′,3′:4,5]cyclopenta[1,2-c]pyrazol-6-yl)benzyl) morpholine], the pIC50 in assay [1] is below 5.00; in assay [2], below 5.00; in assay [3] it was below 6.00; in assay [4] it was 7.00 to 7.52.

Consider `Cn1ncc2ccc(-c3n[nH]c4c3Cc3sc(-c5ccc(CN6CCCC6)cc5)cc3-4)cc21` [Compound 99, 3-(1-methyl-1H-indazol-6-yl)-6-(4-(pyrrolidin-1-ylmethyl)phenyl)-1,4-dihydrothieno[2′,3′:4,5] cyclopenta[1,2-c]pyrazole], for which the pIC50 was below 5.00 in assay [1], 5.00 to 6.00 in assay [2], below 6.00 in assay [3] and 8.00 to 9.00 in assay [4].
